# Laboratory results reported in ChEMBL document CHEMBL1143330, “Preliminary investigations on the synthesis and antitumor activity of 3(2H)-furanones” (Bioorg Med Chem Lett, 2009).
# Active and inactive are the calls of the source. The calls are words filed in the database; no cut-off is given here.
# Tests used:
# DLA [1] = test: Antiproliferative activity against mouse DLA cells assessed as radiolabeled thymidine incorporation at 10 to 200 ug after 24 hrs by liquid scintillation counter; format: functional, cell-based
# DLA [2] = test: Antitumor activity in mouse DLA cells xenografted Swiss albino mouse assessed as inhibition of tumor cell proliferation at 1 mg/kg, po administered after 7 days of tumor induction measured each 3 days upto 31 days; format: functional, organism-based; design: dose 1 mg/kg
Compound,Activity (DLA [1]),Activity (DLA [2])
CC(=O)OC1(c2ccccc2)OC(c2ccccc2)=C(c2ccccc2)C1=O (centres undefined),Active,Active
COC1(c2ccccc2)OC(c2ccccc2)=C(c2ccccc2)C1=O (centres undefined),Active,Active
